{"source": "patent US9040459B2", "about": "“Herbicidal compositions comprising aminopyralid and propanil” (Dow AgroSciences, LLC., priority 2012, dated 2015)", "assay_in_all_cases": "Postemergence herbicidal activity under field conditions, visual weed control", "assay_type_in_all_cases": "in vivo", "conditions_in_all_cases": "post-emergence field trial", "key": {"[1]": {"system": "Phyllanthus niruri L. (gripeweed, PYLNI)", "experimental": "(§1) These trials were conducted under field conditions in Espinal, Colombia. Trial sites were located in commercially grown fields of common rice (Oryza sativa). The rice crop was grown using normal cultural practices for fertilization, seeding, and maintenance to ensure good growth of the crop and the weeds. The trials were conducted using normal research methodology. Trial plots were 2 meters (m) wide by 5 m long. All treatments were applied using a randomized complete block trial design with 4 replications per treatment. The trial sites had naturally occurring populations of weeds. The weed spectrum included, but was not limited to, Cyperus iria L. (rice flatsedge, CYPIR), Digitaria horizontalis (Jamaican crabgrass, DIGHO), Eleusine indica L. Gaertn. (goosegrass, ELEIN), Portulaca oleracea L. (common purslane, POROL) and Phyllanthus niruri L. (gripeweed, PYLNI). The plots were treated with a postemergence foliar application 15 to 20 days after emergence of the rice.\n(§2) Treatments consisted of tank mixes of aminopyralid triisopropanolammonium salt (MILESTONE 240SL) and a commercially available formulation of propanil herbicide (STAM 480EC). The application volume was 200 liters per hectare (L/ha) of water. All applications were made using precision gas hand sprayers with a 3 m boom using flat fan 8002 nozzles to broadcast the treatments over the top of the rice and weeds.\n(§3) The treated plots and control plots were rated blind at various intervals after application. Ratings were based on Percent (%) Visual weed control, where 0 corresponds to no injury and 100 corresponds to complete kill.\n(§4) Colby's equation was used to determine the herbicidal effects expected from the mixtures (Colby, S. R. Calculation of the synergistic and antagonistic response of herbicide combinations. Weeds 1967 15, 20-22).\n(§5) The following equation was used to calculate the expected activity of mixtures containing two active ingredients, A and B: Expected=A+B−(A×B/100)\n(§6) A=observed efficacy of active ingredient A at the same concentration as used in the mixture;\n(§7) B=observed efficacy of active ingredient B at the same concentration as used in the mixture."}, "[2]": {"system": "Portulaca oleracea L. (common purslane, POROL)", "experimental": "as §1, §2, §3, §4, §5, §6, §7"}, "[3]": {"system": "Eleusine indica L. Gaertn. (goosegrass, ELEIN)", "experimental": "as §1, §2, §3, §4, §5, §6, §7"}, "[4]": {"system": "Cyperus iria L. (rice flatsedge, CYPIR)", "experimental": "as §1, §2, §3, §4, §5, §6, §7"}, "[5]": {"system": "Digitaria horizontalis (Jamaican crabgrass, DIGHO)", "experimental": "as §1, §2, §3, §4, §5, §6, §7"}}}
{"smiles": "Nc1cc(Cl)nc(C(=O)O)c1Cl", "note": "[Aminopyralid, 4-amino-3,6-dichloro-2-pyridinecarboxylic acid]", "values": [{"measurement": "Visual Weed Control (%) PYLNI 8 DAA Obs", "setting": "[1]; aminopyralid 4 g ae/ha alone", "result": 0, "unit": "%"}, {"measurement": "Visual Weed Control (%) PYLNI 8 DAA Obs", "setting": "[1]; aminopyralid 8 g ae/ha alone", "result": 3, "unit": "%"}, {"measurement": "Visual Weed Control (%) PYLNI 8 DAA Obs", "setting": "[1]; aminopyralid 16 g ae/ha alone", "result": 3, "unit": "%"}, {"measurement": "Visual Weed Control (%) POROL 8 DAA Obs", "setting": "[2]; aminopyralid 4 g ae/ha alone", "result": 36, "unit": "%"}, {"measurement": "Visual Weed Control (%) POROL 8 DAA Obs", "setting": "[2]; aminopyralid 8 g ae/ha alone", "result": 68, "unit": "%"}, {"measurement": "Visual Weed Control (%) POROL 8 DAA Obs", "setting": "[2]; aminopyralid 16 g ae/ha alone", "result": 93, "unit": "%"}, {"measurement": "Visual Weed Control (%) ELEIN 8 DAA Obs", "setting": "[3]; aminopyralid 4 g ae/ha alone", "result": 0, "unit": "%"}, {"measurement": "Visual Weed Control (%) ELEIN 8 DAA Obs", "setting": "[3]; aminopyralid 8 g ae/ha alone", "result": 0, "unit": "%"}, {"measurement": "Visual Weed Control (%) ELEIN 8 DAA Obs", "setting": "[3]; aminopyralid 16 g ae/ha alone", "result": 0, "unit": "%"}, {"measurement": "Visual Weed Control (%) CYPIR 15 DAA Obs", "setting": "[4]; aminopyralid 4 g ae/ha alone", "result": 4.5, "unit": "%"}, {"measurement": "Visual Weed Control (%) CYPIR 32 DAA Obs", "setting": "[4]; aminopyralid 4 g ae/ha alone", "result": 0, "unit": "%"}, {"measurement": "Visual Weed Control (%) CYPIR 32 DAA Obs", "setting": "[4]; aminopyralid 8 g ae/ha alone", "result": 10, "unit": "%"}, {"measurement": "Visual Weed Control (%) CYPIR 15 DAA Obs", "setting": "[4]; aminopyralid 16 g ae/ha alone", "result": 15, "unit": "%"}, {"measurement": "Visual Weed Control (%) CYPIR 32 DAA Obs", "setting": "[4]; aminopyralid 16 g ae/ha alone", "result": 10, "unit": "%"}, {"measurement": "Visual Weed Control (%) DIGHO 8 DAA Obs", "setting": "[5]; aminopyralid 8 g ae/ha alone", "result": 0, "unit": "%"}, {"measurement": "Visual Weed Control (%) DIGHO 8 DAA Obs", "setting": "[5]; aminopyralid 16 g ae/ha alone", "result": 0, "unit": "%"}]}
{"smiles": "CCC(=O)Nc1ccc(Cl)c(Cl)c1", "note": "[Propanil, N-(3,4-dichloro-phenyl)propanamide]", "values": [{"measurement": "Visual Weed Control (%) PYLNI 8 DAA Obs", "setting": "[1]; propanil 480 g ai/ha alone", "result": 45, "unit": "%"}, {"measurement": "Visual Weed Control (%) POROL 8 DAA Obs", "setting": "[2]; propanil 480 g ai/ha alone", "result": 49, "unit": "%"}, {"measurement": "Visual Weed Control (%) ELEIN 8 DAA Obs", "setting": "[3]; propanil 480 g ai/ha alone", "result": 48, "unit": "%"}, {"measurement": "Visual Weed Control (%) CYPIR 15 DAA Obs", "setting": "[4]; propanil 480 g ai/ha alone", "result": 35, "unit": "%"}, {"measurement": "Visual Weed Control (%) CYPIR 32 DAA Obs", "setting": "[4]; propanil 480 g ai/ha alone", "result": 20, "unit": "%"}, {"measurement": "Visual Weed Control (%) CYPIR 32 DAA Obs", "setting": "[4]; propanil 960 g ai/ha alone", "result": 58, "unit": "%"}, {"measurement": "Visual Weed Control (%) DIGHO 8 DAA Obs", "setting": "[5]; propanil 480 g ai/ha alone", "result": 51, "unit": "%"}]}
